Structures can show the parent of a compound that is named as a salt.
Experiments:
[1] = target: T1, human H3 receptor (Homo sapiens, UniProt Q9Y5N1); test: Human H3 radioligand binding ([3H]-N-alpha-methylhistamine, CHO cell membranes); details: Human H3 binding constant, class symbols; read-out: hH3 Ki
T1 construct: expressed in transfected cells
Experimental: (§1) Methods: CHO cells stably expressing the human H3 receptor (GenBank: NM_007232) were harvested and cell pellets were frozen (−80° C.). Cell pellets were resuspended in 5 mM Tris-HCl, pH 7.5 with 5 nM EDTA and a cocktail of protease inhibitors (Complete Protease Inhibitor Tablets, Roche Diagnostics). Cells were disrupted using a polytron cell homogenizer and the suspension was centrifuged at 1000×g for 10 minutes at 4° C. The pellet was discarded and the supernatant centrifuged at 40,000×g for 30 min at 4° C. This membrane pellet was washed in membrane buffer containing 50 mM Tris-HCl, pH 7.5 with 0.6 mM EDTA, 5 mM MgCl2 and protease inhibitors, recentrifuged as above and the final pellet resuspended in membrane buffer plus 250 mM sucrose and frozen at −80° C.
(§2) Radioligand Binding. Membranes were resuspended in 50 mM Tris HCl (pH 7.4), 5 mM MgCl2, 0.1% BSA. The membrane suspensions (10 μg protein per well) were incubated in a 96 well microtiter plate with [^3H]-N-alpha-methylhistamine (approximately 1 nM final concentration), test compounds at various concentrations (0.01 nM-30 μM) and scintillation proximity beads (Perkin Elmer, FlashBlueGPCR Scintillating Beads) in a final volume of 80 μl for 4 hours at room temperature, protected from light. Non-specific binding was determined in the presence of 10 μM clobenpropit. Radioligand bound to receptor, and therefore in proximity to the scintillation beads, was measured using a MicroBeta scintillation counter.

[2] = target: T2, rat histamine H3 receptor (Rattus norvegicus, UniProt Q9QYN8); test: Rat H3 radioligand binding ([3H]-N-alpha-methylhistamine, CHO-A3 cell membranes); details: Rat H3 binding constant, class symbols; read-out: rH3 Ki
T2 construct: encoding the entire 445-amino-acid rat histamine H3 receptor; expressed in transfected cells
Text: as §1, with “Cell line development and membrane preparation. The rat” for “Methods: CHO cells stably expressing the human”, “cDNA was PCR amplified from reverse-transcribed RNA pooled from rat thalamus, hypothalamus, striatum and prefrontal cortex with a sequence corresponding to by #338-1672 of Genbank file #NM_053506, encoding the entire 445-amino-acid rat histamine H3 receptor. This was engineered into the pIRES-neo3 mammalian expression vector, which was stably transfected into the CHO-A3 cell line (Euroscreen, Belgium), followed by clonal selection by limiting dilution. Cells” for “(GenBank: NM_007232)”
as §2

T1 sequence (Q9Y5N1 whole entry): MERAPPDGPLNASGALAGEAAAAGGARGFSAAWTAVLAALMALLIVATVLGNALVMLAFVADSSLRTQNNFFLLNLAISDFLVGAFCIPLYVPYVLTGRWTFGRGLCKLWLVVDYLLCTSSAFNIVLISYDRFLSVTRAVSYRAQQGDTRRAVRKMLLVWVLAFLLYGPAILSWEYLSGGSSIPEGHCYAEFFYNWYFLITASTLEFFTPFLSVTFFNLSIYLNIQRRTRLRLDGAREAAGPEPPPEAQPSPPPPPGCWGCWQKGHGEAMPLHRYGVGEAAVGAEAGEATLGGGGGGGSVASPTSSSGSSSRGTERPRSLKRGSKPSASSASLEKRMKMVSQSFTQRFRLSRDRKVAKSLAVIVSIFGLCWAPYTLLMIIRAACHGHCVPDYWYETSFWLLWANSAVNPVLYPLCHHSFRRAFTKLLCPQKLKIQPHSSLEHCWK
T2 sequence (Q9QYN8 whole entry): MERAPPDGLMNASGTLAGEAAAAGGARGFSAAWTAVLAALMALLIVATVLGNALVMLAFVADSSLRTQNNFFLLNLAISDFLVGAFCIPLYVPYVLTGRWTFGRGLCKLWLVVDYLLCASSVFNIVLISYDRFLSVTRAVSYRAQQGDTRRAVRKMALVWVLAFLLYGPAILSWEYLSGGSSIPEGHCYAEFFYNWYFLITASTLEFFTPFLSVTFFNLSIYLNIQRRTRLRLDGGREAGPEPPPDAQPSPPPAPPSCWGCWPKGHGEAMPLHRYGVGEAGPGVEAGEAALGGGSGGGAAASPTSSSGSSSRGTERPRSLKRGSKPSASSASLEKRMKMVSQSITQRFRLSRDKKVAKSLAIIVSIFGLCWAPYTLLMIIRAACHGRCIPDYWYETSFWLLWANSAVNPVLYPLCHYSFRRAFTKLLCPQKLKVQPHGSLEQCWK

SMILES | melting point | Ki [1] | Ki [2]
Cn1nc(-c2ccc3c(c2)CCN(C2CCCC2)CC3)ccc1=O (as salt: HCl) [Example 23, 6-(3-Cyclopentyl-2,3,4,5-tetrahydro-1H-benzo[d]azepin-7-yl)-2-methyl-2H-pyridazin-3-one. HCl] | 239 to 240 °C |  | 
O=C1NN=C(c2ccc3c(c2)CCNCC3)C2CC12 (stereo not shown) (as salt: HCl) [Example 39, 5-(2,3,4,5-Tetrahydro-1H-benzo[d]azepin-7-yl)-3,4-diaza-bicyclo[4.1.0]hept-4-en-2-one] | 148 to 151 °C |  | 
O=C1NN=C(c2ccc3c(c2)CCN(C2CCC2)CC3)C2CC12 (stereo not shown) (as salt: HCl) [Example 40, 5-(3-Cyclobutyl-2,3,4,5-tetrahydro-1H-benzo[d]azepin-7-yl)-3,4-diaza-bicyclo[4.1.0]hept-4-en-2-one] | 129 to 132 °C |  | 
C[C@@H]1CCCN1CCc1ccc2cc(-c3ccc(=O)[nH]n3)ccc2c1 (as salt: HCl) [Example 70, 6-{6-[2-((R)-2-Methyl-pyrrolidin-1-yl)-ethyl]-naphthalen-2-yl}-2H-pyridazin-3-one] | 295 to 298 °C |  | 
O=c1ccc(-c2ccc3c(c2)CCN(C2CCC2)CC3)n[nH]1 [Example 2, 6-(3-Cyclobutyl-2,3,4,5-tetrahydro-1H-benzo[d]azepin-7-yl)-2H-pyridazin-3-one] | 250 to 251 °C | < 100 nM | < 100 nM
CC(C)N1N=C(c2ccc3c(c2)CCN(C2CCC2)CC3)CCC1=O [Example 4, 6-(3-Cyclobutyl-2,3,4,5-tetrahydro-1H-benzo[d]azepin-7-yl)-2-isopropyl-4,5-dihydro-2H-pyridazin-3-one] | 140 to 141 °C | < 100 nM | 100 to 1000 nM
CC(C)N1CCc2ccc(C3=NN(C(C)C)C(=O)CC3)cc2CC1 [Example 6, 2-Isopropyl-6-(3-isopropyl-2,3,4,5-tetrahydro-1H-benzo[d]azepin-7-yl)-4,5-dihydro-2H-pyridazin-3-one] | 125 to 126 °C | 100 to 1000 nM | 100 to 1000 nM
CC(C)n1nc(-c2ccc3c(c2)CCN(C2CCC2)CC3)ccc1=O [Example 7, 6-(3-Cyclobutyl-2,3,4,5-tetrahydro-1H-benzo[d]azepin-7-yl)-2-isopropyl-2H-pyridazin-3-one] | 199 to 200 °C | < 100 nM | 100 to 1000 nM
CC(C)N1CCc2ccc(-c3ccc(=O)n(C(C)C)n3)cc2CC1 [Example 8, 2-Isopropyl-6-(3-isopropyl-2,3,4,5-tetrahydro-1H-benzo[d]azepin-7-yl)-2H-pyridazin-3-one] | 244 to 245 °C | 100 to 1000 nM | 100 to 1000 nM
O=C1CCC(c2ccc3c(c2)CCN(C2CCC2)CC3)=NN1 [Example 9, 6-(3-Cyclobutyl-2,3,4,5-tetrahydro-1H-benzo[d]azepin-7-yl)-4,5-dihydro-2H-pyridazin-3-one] | 178 to 179 °C | < 100 nM | 100 to 1000 nM
O=C1CCC(c2ccc3c(c2)CCN(C2CCC2)CC3)=NN1CC(F)(F)F [Example 10, 6-(3-Cyclobutyl-2,3,4,5-tetrahydro-1H-benzo[d]azepin-7-yl)-2-(2,2,2-trifluoro-ethyl)-4,5-dihydro-2H-pyridazin-3-one] | 139 to 140 °C | < 100 nM | < 100 nM
O=c1ccc(-c2ccc3c(c2)CCN(C2CCC2)CC3)nn1CC(F)(F)F [Example 11, 6-(3-Cyclobutyl-2,3,4,5-tetrahydro-1H-benzo[d]azepin-7-yl)-2-(2,2,2-trifluoro-ethyl)-2H-pyridazin-3-one] | 142 to 143 °C | < 100 nM | < 100 nM
CCN1N=C(c2ccc3c(c2)CCN(C2CCC2)CC3)CCC1=O [Example 12, 6-(3-Cyclobutyl-2,3,4,5-tetrahydro-1H-benzo[d]azepin-7-yl)-2-ethyl-4,5-dihydro-2H-pyridazin-3-one] | 97 to 98 °C | < 100 nM | < 100 nM
CCCCN1N=C(c2ccc3c(c2)CCN(C2CCC2)CC3)CCC1=O [Example 13, 2-Butyl-6-(3-cyclobutyl-2,3,4,5-tetrahydro-1H-benzo[d]azepin-7-yl)-4,5-dihydro-2H-pyridazin-3-one] | 104 to 105 °C | < 100 nM | < 100 nM
CCCCn1nc(-c2ccc3c(c2)CCN(C2CCC2)CC3)ccc1=O [Example 14, 2-Butyl-6-(3-cyclobutyl-2,3,4,5-tetrahydro-1H-benzo[d]azepin-7-yl)-2H-pyridazin-3-one] | 88 to 89 °C | < 100 nM | < 100 nM
CC(C)CN1N=C(c2ccc3c(c2)CCN(C2CCC2)CC3)CCC1=O [Example 15, 6-(3-Cyclobutyl-2,3,4,5-tetrahydro-1H-benzo[d]azepin-7-yl)-2-isobutyl-4,5-dihydro-2H-pyridazin-3-one] | 134 to 135 °C | < 100 nM | 100 to 1000 nM
CC(C)Cn1nc(-c2ccc3c(c2)CCN(C2CCC2)CC3)ccc1=O [Example 16, 6-(3-Cyclobutyl-2,3,4,5-tetrahydro-1H-benzo[d]azepin-7-yl)-2-isobutyl-2H-pyridazin-3-one] | 245 to 246 °C | < 100 nM | 100 to 1000 nM
O=C1CCC(c2ccc3c(c2)CCN(C2CCC2)CC3)=NN1CCO [Example 17, 6-(3-Cyclobutyl-2,3,4,5-tetrahydro-1H-benzo[d]azepin-7-yl)-2-(2-hydroxy-ethyl)-4,5-dihydro-2H-pyridazin-3-one] | 141 to 142 °C | < 100 nM | < 100 nM
O=c1ccc(-c2ccc3c(c2)CCN(C2CCC2)CC3)nn1CCO [Example 18, 6-(3-Cyclobutyl-2,3,4,5-tetrahydro-1H-benzo[d]azepin-7-yl)-2-(2-hydroxy-ethyl)-2H-pyridazin-3-one] | 157 to 158 °C | < 100 nM | < 100 nM
O=C1CCC(c2ccc3c(c2)CCN(C2CCC2)CC3)=NN1C1CCC1 [Example 19, 2-Cyclobutyl-6-(3-cyclobutyl-2,3,4,5-tetrahydro-1H-benzo[d]azepin-7-yl)-4,5-dihydro-2H-pyridazin-3-one] | 126 to 128 °C | < 100 nM | 100 to 1000 nM
Cn1nc(-c2ccc3c(c2)CCNCC3)ccc1=O [Example 20, 2-Methyl-6-(2,3,4,5-tetrahydro-1H-benzo[d]azepin-7-yl)-2H-pyridazin-3-one] | 183 to 185 °C | > 1000 nM | > 1000 nM
Cn1nc(-c2ccc3c(c2)CCN(C2CCC2)CC3)ccc1=O [Example 21, 6-(3-Cyclobutyl-2,3,4,5-tetrahydro-1H-benzo[d]azepin-7-yl)-2-methyl-2H-pyridazin-3-one] | 287 to 288 °C | < 100 nM | < 100 nM
CS(=O)(=O)c1ccc(-n2nc(-c3ccc4c(c3)CCN(C3CCC3)CC4)ccc2=O)cc1 [Example 25, 6-(3-Cyclobutyl-2,3,4,5-tetrahydro-1H-benzo[d]azepin-7-yl)-2-(4-methanesulfonyl-phenyl)-2H-pyridazin-3-one] | 225 °C | < 100 nM | 100 to 1000 nM
Cn1nc(-c2ccc(Oc3ccc4c(c3)CCN(C3CCC3)CC4)nc2)ccc1=O [Example 26, 6-[6-(3-Cyclobutyl-2,3,4,5-tetrahydro-1H-benzo[d]azepin-7-yloxy)-pyridin-3-yl]-2-methyl-2H-pyridazin-3-one] | 134 to 137 °C | < 100 nM | < 100 nM
O=c1ccc(-c2ccc(Oc3ccc4c(c3)CCN(C3CCC3)CC4)nc2)n[nH]1 [Example 27, 6-[6-(3-Cyclobutyl-2,3,4,5-tetrahydro-1H-benzo[d]azepin-7-yloxy)-pyridin-3-yl]-2H-pyridazin-3-one] | 215 to 220 °C | < 100 nM | < 100 nM
O=c1ccc(-c2ccc(Oc3ccc4c(c3)CCN(C3CCC3)CC4)nc2)nn1-c1ccccn1 [Example 28, 6-[6-(3-Cyclobutyl-2,3,4,5-tetrahydro-1H-benzo[d]azepin-7-yloxy)-pyridin-3-yl]-2-pyridin-2-yl-2H-pyridazin-3-one] | 178 to 182 °C | < 100 nM | < 100 nM

From patent publication US20110098269A1, “Substituted Pyridazinone Derivatives as Histamine-3 (H3) Receptor Ligands” (Cephalon, Inc., priority 2008, published 2011)
